{
  "source": "patent US11260050B2",
  "about": "“Combination of cotinine plus antioxidant for treatment-resistant depression and correction of astrocytes functional deficit induced by depression and other neuropathological” (UNIVERSIDAD SAN SEBASTIAN, priority 2017, dated 2022)",
  "key": {"[1]": {"test_system": "mice subjected to restraint stress", "assay": "Porsolt test after restraint stress, intranasal post-treatment (Example 1, Experiment 1)", "type": "in vivo, C57BL/6 mice", "conditions": "RS mice post-treated with cotinine via IN; p<0.01", "method": "Mice were treated immediately after the 21 days of immobilization stress (6 h/day) until euthanasia. Mice (n=5-8/condition) received daily treatments with 1. PBS (phosphate buffer saline, pH 7.4) via intranasal (2×12 μl/nostril), 2. PBS via gavage (50 μl); 3. Cotinine dissolved in PBS via oral (gavage, (0.5 mg/kg; Cot 0.5); 4. Cotinine dissolved in PBS via intranasal (Cot IN, 10 mg/ml, 2×12 μl/nostril).\nTo induce chronic stress, the restraint stress paradigm was used as previously described. Mice are immobilized in 50 ml falcon plastic tubes that were attached to mouse cages. The immobilization proceeded during 6 h from 9:00 AM to 3:00 PM in absence of treatments. Tubes have holes in the opposite side of the tube to allow the animal breathing and urination. Mice were almost completely immobilized for 6 h/day for 21 days after which they were permitted freely to move, eat and drink.\nThis test is used to measure the antidepressant effects of drugs, and consists in placing each mouse in a transparent cylinder filled with water at room temperature (RT). After a brief period of strong activity, rodents adopt a characteristic immobile posture. The time mice spent immobile is a measure of depressive-like behavior. The immobility time will be recorded during a 15-min and a next day 5-min trial. The time spent by each mouse immobile will be recorded."}, "GFAP": {"test_system": "GFAP", "assay": "Immunohistochemical analysis of GFAP expression, hippocampus and frontal cortex (Example 1)", "type": "in vivo, C57BL/6 mice", "conditions": "RS mice treated with cotinine", "from_the_text": "After treatments, the hippocampus and frontal cortex were investigated for changes in neuronal and glia cells architecture by Luxol blue staining, and cresyl violet staining. Also, the expression levels of the astrocyte marker GFAP in cells of the same areas by immunohistochemistry.\nAfter the behavioral testing, mice were euthanized and brains were removed and dissected. Each brain was divided into two parts, left and right hemispheres. The frontal cortex and hippocampus were dissected from left hemisphere on ice and quickly frozen for subsequent analyses at −80° C. The right hemispheres were post-fixed in 10% buffered formalin (pH7.4) for 48 hours, included in paraffin, sliced in 4 μm sections and mounted in slides for histological and immunohistochemical analysis. […]\nThree digital images of the slides immunostained for GFAP immunoreactivity (IR) were obtained of the hippocampus and frontal cortex using a digital camera attached to an inverted microscope at 40× magnification (Micrometrics, MilesCo Scientific, Princeton, Minn., USA) operated by software Micrometrics (Micrometrics SE Premium). To quantitate GFAP immunoreactivity the area of immunostaining was delimited and quantitated using the ImageJ software, provided by the National Institute of Health (NIH, Bethesda, […]., USA)."}, "restrained mice": {"test_system": "restrained mice", "assay": "Forced swim test, oral co-treatment during restraint stress (Example 3)", "type": "in vivo, C57BL/6J mice", "conditions": "oral cotinine 5 mg/kg, KO 143 mg/kg or both, vs vehicle-treated restrained mice", "method": "Mice after acclimatization and one week of handling were randomly divided into five groups (n=8/condition) and orally treated as follow: 1) control non-restrained mice treated with vehicle (PBS, pH 7.4); 2) restrained mice treated with vehicle; 3), restrained mice treated with a cotinine solution (5 mg/kg in PBS, pH 7.4) via gavage; 4) restrained mice treated with KO (143 mg/kg); 5) restrained mice treated with cotinine plus KO solution. Mice were started with treatments, the first day of restraint and continuously until euthanasia. Treatments were administered at the same time of the day, 30 min before restraint. After 21 days into treatments, mice were behaviorally tested (FIG. 17).\nRestraint stress (RS) was used as a model of chronic stress-induced depressive-like behavior and cognitive impairment. We used this task because is a reliable method that mimics the effects of chronic stress without causing physical pain or unnecessary discomfort to the mice. Mice were gently introduced into a 50-ml conical transparent plastic tubes (Corning Inc.). The tubes contain non-protruding perforations in both ends and in the walls to permit ventilation and only permitted slight movements. […]\nThe forced swim (FS) is a broadly used task to assess depressive-like behavior in rodents. […] Immobility time was recorded and quantified by two investigators blind to the treatment groups."}},
  "data": [
    {"smiles": "CN1C(=O)CC[C@H]1c1cccnc1", "note": "[Cotinine, (5S)-1-methyl-5-(3-pyridyl) pyrrolidin-2-one]", "values": [
      {"measurement": "depressive-like behavior (freezing/immobility) in the Porsolt test", "setting": "[1]", "result": "significant decrease in depressive-like behavior"},
      {"measurement": "level of GFAP+ cells in the hippocampus and cortex (qualitative analysis)", "setting": "GFAP", "result": "recovery of this expression was observed"},
      {"measurement": "immobility in the forced swim test", "setting": "restrained mice", "result": "no significant differences"}
    ]}
  ]
}
